Here are results for 6 molecules from patent US20260206755A1, “COMPOUNDS AND COMPOSITIONS HAVING KNOCK-DOWN OR BLOOD FEED INHIBITION ACTIVITY AGAINST INSECT PESTS” (priority 2017, published 2026).

The mortality is the share of the test organisms that died.

This series deals with Anopheles stephensi. Put plainly: Anopheles stephensi treated well plate contact test: knockdown and mortality. The series is classed as in vivo. The conditions noted are these: for mortality at 0.02 ppm / mortality at 0.2 ppm / mortality at 2 ppm / mortality at 20 ppm / pest or weed control at 0.02 ppm / pest or weed control at 0.2 ppm / pest or weed control at 2 ppm / pest or weed control at 20 ppm / mortality at 200 ppm / pest or weed control at 200 ppm: Anopheles stephensi; for pest or weed control at 0.02 ppm / pest or weed control at 0.2 ppm / pest or weed control at 2 ppm / pest or weed control at 20 ppm / Knock Down, with TFNA-AM / pest or weed control at 200 ppm: knockdown after 1 hour; for pest or weed control at 0.02 ppm / pest or weed control at 0.2 ppm / pest or weed control at 2 ppm / pest or weed control at 20 ppm / pest or weed control at 200 ppm: read-out: Knock Down, without TFNA-AM; for mortality at 200 ppm / pest or weed control at 200 ppm: test compound 200 ppm; for pest or weed control at 200 ppm: adult females. On the procedure:
Examples Anopheles stephensi (Indian Malaria Mosquito)
The individual wells of twelve (12) well tissue culture plates were treated with 200 μl of an ethanol solution containing a test compound of Table 1 or Table 2 at a defined concentration and repeated with also 200 μl of an ethanol solution containing in addition 2 ppm TFNA-AM. Once the deposits were dry, five non-blood fed adult female Anopheles stephensi (between two to five day old) were added to each well, and sustained with a 10% sucrose solution in a cotton wool plug. Assessment of the knockdown after 1 hour, and mortality after 24 and 48 hours was carried out.
In case of multiple tests, the mean value is reported.

Setting [1] is: 24 h, read-out: mortality % 24, without TFNA-AM.
Where [2] appears, read: 48 h, read-out: mortality % 48, without TFNA-AM.
[3] abbreviates: test compound 0.02 ppm, without TFNA-AM.
The mark [4] stands for this setting: test compound 0.2 ppm, without TFNA-AM.
Setting [5] is: test compound 2 ppm, without TFNA-AM.
The mark [6] stands for this setting: test compound 20 ppm, without TFNA-AM.
Where [7] appears, read: test compound 0.02 ppm plus 2 ppm TFNA-AM, after 24 hours.
Where [8] appears, read: test compound 0.02 ppm plus 2 ppm TFNA-AM, after 48 hours.
[9] abbreviates: test compound 0.02 ppm plus 2 ppm TFNA-AM.
Where [10] appears, read: test compound 0.2 ppm plus 2 ppm TFNA-AM, after 24 hours.
Setting [11] is: test compound 0.2 ppm plus 2 ppm TFNA-AM, after 48 hours.
The mark [12] stands for this setting: test compound 0.2 ppm plus 2 ppm TFNA-AM.
The mark [13] stands for this setting: test compound 2 ppm plus 2 ppm TFNA-AM, after 24 hours.
The mark [14] stands for this setting: test compound 2 ppm plus 2 ppm TFNA-AM, after 48 hours.
[15] abbreviates: test compound 2 ppm plus 2 ppm TFNA-AM.
[16] abbreviates: test compound 20 ppm plus 2 ppm TFNA-AM, after 24 hours.
[17] abbreviates: test compound 20 ppm plus 2 ppm TFNA-AM, after 48 hours.
The mark [18] stands for this setting: test compound 20 ppm plus 2 ppm TFNA-AM.
Setting [19] is: test compound 0.2 ppm, without TFNA-AM, after 24 hours, read-out: mortality % 24, without TFNA-AM.
Where [20] appears, read: test compound 0.2 ppm, without TFNA-AM, after 48 hours, read-out: mortality % 48, without TFNA-AM.
The mark [21] stands for this setting: test compound 2 ppm, without TFNA-AM, after 24 hours, read-out: mortality % 24, without TFNA-AM.
The mark [22] stands for this setting: test compound 2 ppm, without TFNA-AM, after 48 hours, read-out: mortality % 48, without TFNA-AM.
Where [23] appears, read: test compound 20 ppm, without TFNA-AM, after 24 hours, read-out: mortality % 24, without TFNA-AM.
Where [24] appears, read: test compound 20 ppm, without TFNA-AM, after 48 hours, read-out: mortality % 48, without TFNA-AM.
The mark [25] stands for this setting: without TFNA-AM, after 24 hours, read-out: mortality % 24, without TFNA-AM.
Setting [26] is: without TFNA-AM, after 48 hours, read-out: mortality % 48, without TFNA-AM.
Where [27] appears, read: test compound 200 ppm plus 2 ppm TFNA-AM, after 24 hours.
Where [28] appears, read: test compound 200 ppm plus 2 ppm TFNA-AM, after 48 hours.
The mark [29] stands for this setting: test compound 200 ppm plus 2 ppm TFNA-AM.

Like-named read-outs stand apart in the source and are kept apart here.

Regarding `CCOC(=O)CC(SP(=S)(OC)OC)C(=O)OCC` (centres unmarked) [Malathion], the mortality at 0.02 ppm runs as follows: under setting [1], 0%; under setting [2], 0%. For the same molecule, the mortality at 0.2 ppm is, setting by setting: under setting [1], 0%; under setting [2], 0%. In addition, the mortality at 2 ppm amounted to 100% under setting [1] and 100% under setting [2]. In addition, the mortality at 20 ppm worked out at 100% under setting [1] and 100% under setting [2]. In addition, the pest or weed control at 0.02 ppm under setting [3] was found to be 20%. The pest or weed control at 0.2 ppm under setting [4] came out at 20%. Moreover, the pest or weed control at 2 ppm under setting [5] was 40%. The pest or weed control at 20 ppm under setting [6] worked out at 40%. For the same molecule, the “mortality % 24, with TFNA-AM” value reads like this: under setting [7], 0%; under setting [10], 0%; under setting [13], 100%; under setting [16], 100%. Moreover, the “mortality % 48, with TFNA-AM” value is recorded as 0% under setting [8], 0% under setting [11], 100% under setting [14] and 100% under setting [17]. Besides, the “Knock Down, with TFNA-AM” value by setting is: under setting [9], 100%; under setting [12], 100%; under setting [15], 100%; under setting [18], 100%.
In the case of `Cc1c(COC(=O)[C@@H]2[C@H](/C=C(\Cl)C(F)(F)F)C2(C)C)cccc1-c1ccccc1` (racemic) [Bifenthrin], the mortality at 0.02 ppm turned out to be 20% (test compound 0.02 ppm, without TFNA-AM, after 24 hours, read-out: mortality % 24, without TFNA-AM) and 60% (test compound 0.02 ppm, without TFNA-AM, after 48 hours, read-out: mortality % 48, without TFNA-AM). The pest or weed control at 0.02 ppm under setting [3] is 20%. Further, the mortality at 0.2 ppm reads like this: under setting [19], 100%; under setting [20], 100%. For the same molecule, the pest or weed control at 0.2 ppm under setting [4] worked out at 20%. Moreover, the mortality at 2 ppm reads like this: under setting [21], 100%; under setting [22], 100%. The pest or weed control at 2 ppm under setting [5] turned out to be 100%. Besides, the mortality at 20 ppm under setting [23] is 100% and the mortality at 20 ppm under setting [24] was found to be 100%. Moreover, the pest or weed control at 20 ppm under setting [6] stood at 100%. In addition, the “mortality % 24, with TFNA-AM” value under setting [7] is recorded as 100%; the “mortality % 24, with TFNA-AM” value under setting [10] worked out at 100%; the “mortality % 24, with TFNA-AM” value under setting [13] came out at 100%; the “mortality % 24, with TFNA-AM” value under setting [16] was found to be 100%. Further, the “mortality % 48, with TFNA-AM” value is 100% under setting [8], 100% under setting [11], 100% under setting [14] and 100% under setting [17]. Also, the “Knock Down, with TFNA-AM” value was determined as 100% under setting [9], 100% under setting [12], 100% under setting [15] and 100% under setting [18].
Take `Nc1nc(N)nc(NC2CC2)n1` [Cyromazine]: the mortality at 0.2 ppm by setting is: under setting [19], 0%; under setting [20], 0%. Also, the pest or weed control at 0.2 ppm under setting [4] is 0%. In addition, the mortality at 2 ppm reads like this: under setting [21], 0%; under setting [22], 0%. The pest or weed control at 2 ppm under setting [5] is 0%. Further, the mortality at 20 ppm runs as follows: under setting [23], 0%; under setting [24], 0%. Also, the pest or weed control at 20 ppm under setting [6] came to 0%. Besides, the mortality at 200 ppm was 0% under setting [25] and 0% under setting [26]. Further, the pest or weed control at 200 ppm (without TFNA-AM) stood at 0%. Also, the “mortality % 24, with TFNA-AM” value under setting [10] is recorded as 20%; the “mortality % 24, with TFNA-AM” value under setting [13] is recorded as 20%; the “mortality % 24, with TFNA-AM” value under setting [16] came out at 60%; the “mortality % 24, with TFNA-AM” value under setting [27] is on record as 80%. Moreover, the “mortality % 48, with TFNA-AM” value is, setting by setting: under setting [11], 0%; under setting [14], 0%; under setting [17], 40%; under setting [28], 40%. Moreover, the “Knock Down, with TFNA-AM” value is on record as 100% under setting [12], 100% under setting [15], 100% under setting [18] and 100% under setting [29].
As to `COP(=S)(OC)Oc1ccc([N+](=O)[O-])c(C)c1` [Fenitrothion], the mortality at 0.02 ppm by setting is: under setting [1], 0%; under setting [2], 0%. The mortality at 0.2 ppm is, setting by setting: under setting [1], 20%; under setting [2], 100%. For the same molecule, the mortality at 2 ppm is 100% under setting [1] and 100% under setting [2]. Besides, the mortality at 20 ppm reads like this: under setting [1], 100%; under setting [2], 100%. The pest or weed control at 0.02 ppm under setting [3] was 0%. Further, the pest or weed control at 0.2 ppm under setting [4] came to 0%. Also, under setting [5], the pest or weed control at 2 ppm worked out at 0%. For the same molecule, the pest or weed control at 20 ppm under setting [6] was found to be 0%. For the same molecule, the “mortality % 24, with TFNA-AM” value by setting is: under setting [7], 40%; under setting [10], 80%; under setting [13], 100%; under setting [16], 100%. The “mortality % 48, with TFNA-AM” value by setting is: under setting [8], 40%; under setting [11], 100%; under setting [14], 100%; under setting [17], 100%. Moreover, the “Knock Down, with TFNA-AM” value reads like this: under setting [9], 100%; under setting [12], 100%; under setting [15], 100%; under setting [18], 100%.
For `O=[N+]([O-])NC1=NCCN1Cc1ccc(Cl)nc1` [Imidacloprid], the mortality at 0.2 ppm reads like this: under setting [19], 0%; under setting [20], 0%. Also, the pest or weed control at 0.2 ppm under setting [4] turned out to be 0%. Besides, the mortality at 2 ppm under setting [21] came out at 20% and the mortality at 2 ppm under setting [22] stood at 20%. For the same molecule, the pest or weed control at 2 ppm under setting [5] came to 0%. Also, the mortality at 20 ppm worked out at 20% under setting [23] and 60% under setting [24]. In addition, the pest or weed control at 20 ppm under setting [6] is 0%. In addition, the mortality at 200 ppm reads like this: under setting [25], 40%; under setting [26], 60%. The pest or weed control at 200 ppm (without TFNA-AM) was 40%. Further, the “mortality % 48, with TFNA-AM” value is, setting by setting: under setting [11], 0%; under setting [14], 100%; under setting [17], 100%; under setting [28], 100%. The “Knock Down, with TFNA-AM” value is 100% under setting [12], 100% under setting [15], 100% under setting [18] and 100% under setting [29]. Also, the “mortality % 24, with TFNA-AM” value runs as follows: under setting [13], 100%; under setting [16], 100%; under setting [27], 100%.
With `CC(COc1ccc(Oc2ccccc2)cc1)Oc1ccccn1` (centres unmarked) [Pyriproxyfen], the mortality at 0.2 ppm is, setting by setting: under setting [19], 0%; under setting [20], 0%. Further, under setting [4], the pest or weed control at 0.2 ppm was 0%. Moreover, the mortality at 2 ppm under setting [21] was determined as 0% and the mortality at 2 ppm under setting [22] worked out at 0%. Further, under setting [5], the pest or weed control at 2 ppm is 0%. Further, the mortality at 20 ppm by setting is: under setting [23], 0%; under setting [24], 0%. In addition, the pest or weed control at 20 ppm under setting [6] worked out at 0%. For the same molecule, the mortality at 200 ppm reads like this: under setting [25], 0%; under setting [26], 0%. In addition, the pest or weed control at 200 ppm (without TFNA-AM) was found to be 0%. Besides, the “mortality % 24, with TFNA-AM” value is, setting by setting: under setting [10], 60%; under setting [13], 60%; under setting [16], 60%; under setting [27], 80%. Besides, the “mortality % 48, with TFNA-AM” value by setting is: under setting [11], 60%; under setting [14], 60%; under setting [17], 60%; under setting [28], 80%. Further, the “Knock Down, with TFNA-AM” value reads like this: under setting [12], 100%; under setting [15], 100%; under setting [18], 100%; under setting [29], 100%.
